In ChEMBL document CHEMBL3988442, “University of Dundee, Small-Polar-MMV Screening Library” (2021):

How the values were obtained:
[1] = microbe, parasite or virus in culture; conditions: Mycobacterium tuberculosis, 96 h, read-out: pIC50 (converted)
[2] = microbe, parasite or virus in culture; conditions: Mycobacterium tuberculosis, 72 h, read-out: pIC50 (converted)

Compound | IC50 [1] | IC50 [2]
NC(=O)C1CCN(Cc2ccc(S(=O)(=O)N3CCCC3)o2)CC1 | > 50.1 µM | > 50.1 µM
COCc1nn(Cc2ccccc2Cl)c(=O)o1 | 393 µM | 35.9 µM
N[C@@H]1CCN(Cc2cc(F)cc(C(F)(F)F)c2)C[C@H]1O | > 501 µM | 266 µM
CS(=O)(=O)NCC1CCCN(c2ncc(Cl)cc2F)C1 (stereo not drawn) | > 501 µM | 159 µM
COc1ccc(CN2C[C@H]3CN(C(=O)c4ccno4)CCN3C2=O)cc1 | > 50.1 µM | > 50.1 µM
O=C(Nc1cccnc1N1CCC(CO)CC1)C1CC1 | 53.6 µM | > 501 µM
CCOCCN(C)C(c1cccnc1)c1ccc(F)cc1F (stereo not drawn) | > 50.1 µM | > 50.1 µM
O=C(NCC1CC1)c1cccc2nn[nH]c12 | 256 µM | 233 µM
CC1CCN(S(=O)(=O)NC(C)Cc2ccco2)CC1 (stereo not drawn) | > 50.1 µM | > 50.1 µM
CNCCCNC(=O)CCc1ccc(F)cc1 | > 501 µM | > 501 µM
CN1N=C(C(=O)NCc2ccc(Cl)cc2)CCC1=O | 38.8 µM | 26.9 µM
CNC(=O)c1ccc(Cl)c(S(=O)(=O)N2CCCCC2)c1 | > 501 µM | > 501 µM
O=C(NCC1CCCO1)c1cc(-c2cccs2)on1 (stereo not drawn) | 54.8 µM | 38.3 µM
NCCCOC1CCN(C(=O)c2ccc(Br)o2)CC1 | > 501 µM | 76.7 µM
Cc1ccc(C(=O)N2CCCC(Nc3ccc(F)cc3)C2)cc1 (stereo not drawn) | 20.9 µM | 18.7 µM
OCC(O)CSCc1ncc(-c2cccc(Cl)c2)o1 (stereo not drawn) | > 501 µM | 211 µM
CC(C)Cc1noc(-c2ccc(N(C)CCO)nc2)n1 | 397 µM | 239 µM
CC(Nc1ccc(OC(F)F)cn1)c1ccncc1 (stereo not drawn) | 246 µM | 195 µM
COc1cc(C(=O)Nc2nc(C)no2)ccc1C | > 50.1 µM | > 50.1 µM
O=C(CN(C1=NCCCC1)c1ccccc1)c1ccc(OC(F)F)cc1 | 24.6 µM | 39.3 µM
COc1ccc(C2SCC(=O)N2c2ncc(C)s2)cc1 (stereo not drawn) | 30.1 µM | 5.8 µM
CC(=O)c1cccc(COC(=O)c2cccnc2)c1 | 269 µM | 231 µM
CCCC(C)CS(=O)(=O)NCc1ccncc1 (stereo not drawn) | 123 µM | 115 µM
COc1cc(C(=O)NCCCc2ccccc2)on1 | > 50.1 µM | > 50.1 µM
Cc1c(C(=O)NC[C@H]2CCCN2)n(C)c2ccccc12 | > 501 µM | > 501 µM
COc1ccc2c(c1)OCC(CNC(=O)CN(C)C)C2 (stereo not drawn) | > 501 µM | > 501 µM

Compound | IC50 [1] | IC50 [2]
NCC1CCN(CCc2ccccc2)C1 (stereo not drawn) | 213 µM | 209 µM
Cc1ccc(S(=O)(=O)NC(CN)C2CC2)c(F)c1 (stereo not drawn) | > 501 µM | > 501 µM
Cc1cc(NC(C)CN2CCOCC2)ncc1Br (stereo not drawn) | > 501 µM | 420 µM
CN1CCCCC1CC(=O)NCc1ccc(C#N)cc1 (stereo not drawn) | > 501 µM | > 501 µM
O=C(NCCSC1CCCC1)c1ccccn1 | > 501 µM | 173 µM
CCOCC(O)CSc1nccn1-c1cccc(F)c1 (stereo not drawn) | 290 µM | 189 µM
Cc1cc(C(=O)NCc2ccc(F)cc2)[nH]n1 | 132 µM | 28 µM
CN1CCCN(Cc2cc(F)cc(F)c2)CC1=O | 211 µM | 169 µM
CO[C@H]1CNCC1NC(=O)c1cc2ccccc2n1C (stereo partly drawn) | > 501 µM | 359 µM
CNC(=O)CSc1nnnn1-c1ccc(C(C)C)cc1 | 134 µM | 120 µM
CN(C1CCCCC1)S(=O)(=O)NC1CCCCNC1=O (stereo not drawn) | > 501 µM | > 501 µM
O=C(O)[C@@H]1CN(Cc2ccc(-c3cc[nH]n3)s2)C[C@H]1C1CC1 | > 50.1 µM | > 50.1 µM
COc1ccc(OCCSc2n[nH]c(N)n2)cc1 | 220 µM | 199 µM
CCn1nnc(NCc2ccccc2OCc2ccc(Cl)cc2)n1 | 0.308 µM | > 50.1 µM
CCOc1ncc(C(=O)NCC(C)(O)C(C)C)cc1Cl (stereo not drawn) | 141 µM | 59.9 µM
COCCOc1ccc(C(=O)NCc2ccco2)cc1 | 61.7 µM | 109 µM
Cc1cnc(C(=O)NCCCc2ccccn2)cn1 | > 501 µM | 111 µM
NC1CCN(c2ccccc2OC(F)F)C1 (stereo not drawn) | > 501 µM | 135 µM
CCC(C)NC(=O)Cc1ccc2c(c1)OCCO2 (stereo not drawn) | > 501 µM | > 501 µM
Cc1ccc(CN2CCN(C(=O)c3ccc(Br)o3)CC2)cc1 | 37.2 µM | 30.4 µM
N[C@@H]1C[C@H]1c1ccc2c(c1)OCCO2 | 196 µM | > 501 µM
COCc1cccc(C(=O)N2CCCC2)c1 | > 50.1 µM | 16.3 µM
COC(=O)NCC(=O)N(C)c1ccc2ccccc2c1 | > 501 µM | 129 µM
CC(Nc1cccc(OC(F)(F)F)c1)C(=O)NC(N)=O (stereo not drawn) | > 501 µM | 184 µM
CNC(=O)CNC(=O)c1cc2ccccc2cc1OC | > 501 µM | > 501 µM
Cc1ccc(OC2CN(C(=O)[C@H](N)C(C)C)C2)cc1 | 236 µM | 393 µM

Compound | IC50 [1] | IC50 [2]
Cc1cnc(NC(=O)c2csc(NC3CCCC3)n2)s1 | > 50.1 µM | > 50.1 µM
COC(=O)CSc1nc(N)c2ccsc2n1 | > 501 µM | 250 µM
O=C(COC(=O)c1cccs1)NCc1ccco1 | > 501 µM | 204 µM
CC(CCc1ccco1)NC(=O)Nc1cc(C(F)(F)F)c[nH]c1=O (stereo not drawn) | 43.3 µM | 15.9 µM
NCC1CN(c2nc3cc(Cl)ccc3o2)CCO1 (stereo not drawn) | 271 µM | 75.2 µM
CCC(CO)NCc1ccc(-c2ccc(Br)cc2)o1 (stereo not drawn) | 27.5 µM | 44.3 µM
CC(C)(C)c1nc(CN2CCC(c3ccnn3CCO)CC2)no1 | > 50.1 µM | > 50.1 µM
CN1CCC(Cc2cc(Nc3ncccn3)ncn2)CC1 | > 50.1 µM | > 50.1 µM
O=C(NC1CCCc2ccccc21)c1ccncc1 (stereo not drawn) | > 501 µM | 146 µM
COc1cccc(N2Cc3nc(=O)n(C(C)C)n3C2=O)c1 | > 50.1 µM | > 50.1 µM
NS(=O)(=O)c1cccc2c1CCCN2Cc1nccs1 | > 501 µM | > 501 µM
CCc1n[nH]c(SCC(=O)Nc2ccc(Br)cn2)n1 | 186 µM | 144 µM
CC(C)Cn1ccnc1CNc1ncccc1F | 382 µM | 307 µM
COCC(C)(CCO)NCC(=O)Nc1ccccc1I (stereo not drawn) | > 501 µM | 238 µM
Cc1cc(C(=O)NCCCN(C)CC(F)(F)F)no1 | > 501 µM | > 501 µM
CC(C)OCCn1nnnc1Cc1ccc(Br)cc1 | 14.5 µM | 35.5 µM
CCc1cc(CNC(=O)c2ccc(F)c(F)c2)[nH]n1 | 102 µM | 175 µM
COc1ccc(-c2noc(C(C)n3ccnc3)n2)cn1 (stereo not drawn) | 442 µM | 300 µM
C=C(C)CSc1nnc(CCNC(=O)OC(C)(C)C)o1 | 5.84 µM | 40.4 µM
O=C(c1cccs1)N1CC(Oc2ccccc2Cl)C1 | 42.8 µM | 26.7 µM
COc1ccc(CNC(C)c2ccc(Cl)c(Cl)c2)c(OC)c1OC (stereo not drawn) | > 50.1 µM | 45.1 µM
CC(C)CNc1cccc(-n2cnnn2)c1 | 247 µM | 274 µM
O=S(=O)(CCN1CCC[C@H]1CO)c1ccccc1 | > 501 µM | 198 µM
CC(C)CNc1nc(N)c2cn[nH]c2n1 | 234 µM | 80 µM
Cc1cc(CN2CCN(C(=O)CCc3cccs3)CC2)on1 | 10.5 µM | 4.03 µM
COC(=O)c1ccc(CSc2n[nH]c(C)n2)o1 | 181 µM | 239 µM

Compound | IC50 [1] | IC50 [2]
CCCOc1ccc(CNC(=O)c2cc[nH]n2)cn1 | > 501 µM | 114 µM
Cc1cc(CN(C)CC2(O)CCCN(CCC3CCCCC3)C2=O)no1 (stereo not drawn) | > 50.1 µM | > 50.1 µM
Cc1nnc(SCCC(=O)N(C)Cc2c(F)cccc2Cl)[nH]1 | > 50.1 µM | > 50.1 µM
O=S(=O)(CCc1ccccc1)Cc1nc(C2CC2)no1 | 10.7 µM | 10.6 µM
CC1Cc2ccccc2N1CCN (stereo not drawn) | 204 µM | 172 µM
Cc1ccc(OCC(=O)NC2(C#N)CCSCC2)cc1C | 2.04 µM | 20.7 µM
CCc1nc(CN2CCCN(c3cnc4ccccc4n3)CC2)no1 | 26.5 µM | > 50.1 µM
N#Cc1c(F)cccc1NCCSCCCO | 67.1 µM | 102 µM
COCC(C)Oc1cc(C)ccc1CN (stereo not drawn) | 228 µM | 149 µM
CNC(=O)C(C)Sc1nnnn1-c1ccccc1C (stereo not drawn) | 213 µM | 210 µM
CCNC(=O)CNc1cc(C)c(Cl)cc1OC | > 501 µM | 135 µM
NC[C@]12C[C@H]1CCN2Cc1ccccc1 | 184 µM | > 501 µM
O=C(NCc1cccc(Cl)c1)c1cnns1 | 159 µM | 297 µM
COc1ccc(C(O)CNC(=O)Nc2nncs2)cc1 (stereo not drawn) | 380 µM | 195 µM
CCOC(=O)C1CCCN(C(=O)c2onc(C)c2Cl)C1 (stereo not drawn) | 303 µM | 232 µM
CCCn1nc(C(=O)NCc2csc(Br)c2)ccc1=O | 154 µM | 222 µM
Cc1cc(C(=O)Nc2ccc3c(c2)CCCN3)on1 | > 501 µM | 150 µM
Cc1ccc(C2(O)CCNC2)cc1 (stereo not drawn) | > 501 µM | 181 µM
CC(C)Cc1cc(C(=O)N(C)Cc2cnccn2)on1 | > 501 µM | > 501 µM
CC(CNC(=O)N[C@@H](C)C(=O)N(C)C)Cc1cccs1 (stereo partly drawn) | 277 µM | 247 µM
O=c1c2sccc2nc2n1CCN(Cc1ccc(F)c(F)c1)CC2 | 4.05 µM | > 50.1 µM
Cc1cc(CN2CCCC2)cc(Oc2ccc3c(c2)CC(CN)O3)c1 (stereo not drawn) | > 50.1 µM | > 50.1 µM
O=S(=O)(NCCNc1ccc(-n2cccc2)nn1)c1ccccc1 | 16.5 µM | 15.5 µM
c1ccc(C2=NN=C(NC3CC3)SC2)cc1 | 140 µM | 230 µM
Cc1nnsc1CN1C[C@H]2CC[C@@H]1CN(Cc1ccccc1)C2 | 42.5 µM | 13.8 µM
CCOc1cccc(Cn2cnc(CC)cc2=O)n1 | > 501 µM | > 501 µM
